Values after ≈ are worked out from the molar mass of the structure shown.
Tests used:
Enterococcus faecalis = experiment: In vitro for antibacterial activity against Enterococcus faecalis strain STCO-19; format: functional
Staphylococcus aureus = experiment: In vitro for antibacterial activity against Staphylococcus aureus strain SFCO-1a; format: functional

| SMILES | MIC (Enterococcus faecalis) [µg/mL] | MIC (Staphylococcus aureus) [µg/mL] |
| --- | --- | --- |
| CC(=O)NC[C@H]1CN(c2ccc([S@+](C)[O-])cc2)C(=O)O1 | 16 (≈ 54 µM) | 8 (≈ 27 µM) |
| CC(=O)NC[C@H]1CN(c2ccc(/C(C)=N\O)cc2)C(=O)O1 | 2 (≈ 6.87 µM) | 4 (≈ 13.7 µM) |
| CC(=O)NCC1CN(c2ccc(C#N)cc2)C(=O)O1 (racemic) | 16 (≈ 61.7 µM) | 16 (≈ 61.7 µM) |
| CC(=O)Cc1ccc(N2C[C@H](CNC(C)=O)OC2=O)cc1 | 8 (≈ 27.6 µM) | 4 (≈ 13.8 µM) |
| CCCSc1ccc(N2C[C@H](CNC(C)=O)OC2=O)cc1 | 8 (≈ 25.9 µM) | 8 (≈ 25.9 µM) |
| CC(=O)NC[C@H]1CN(c2ccccc2)C(=O)O1 | 128 (≈ 546 µM) | 128 (≈ 546 µM) |
| CC(=O)NC[C@H]1CN(c2ccc(C(=O)CCl)cc2)C(=O)O1 | 2 (≈ 6.44 µM) | 0.5 (≈ 1.61 µM) |
| CCc1ccc(N2C[C@H](CNC(C)=O)OC2=O)cc1 | 8 (≈ 30.5 µM) | 4 (≈ 15.2 µM) |
| CC(=O)NC[C@H]1CN(c2ccc(C(F)(F)F)cc2)C(=O)O1 | 8 (≈ 26.5 µM) | 8 (≈ 26.5 µM) |
| CC(=O)NC[C@H]1CN(c2ccc([S+]([O-])CF)cc2)C(=O)O1 (stereo partly specified) | 8 (≈ 25.5 µM) | 8 (≈ 25.5 µM) |
| CC(=O)NC[C@H]1CN(c2ccc([S+](C)[O-])cc2)C(=O)O1 (stereo partly specified) | 4 (≈ 13.5 µM) | 4 (≈ 13.5 µM) |
| CCC(=O)c1ccc(N2C[C@H](CNC(C)=O)OC2=O)cc1 | 0.5 (≈ 1.72 µM) | 1 (≈ 3.44 µM) |
| CCC[S+]([O-])c1ccc(N2C[C@H](CNC(C)=O)OC2=O)cc1 (stereo partly specified) | 64 (≈ 197 µM) | 32 (≈ 98.6 µM) |
| CC(=O)NC[C@H]1CN(c2ccc(C(F)(F)C(F)(F)F)cc2)C(=O)O1 | 2 (≈ 5.68 µM) | 2 (≈ 5.68 µM) |
| CC(=O)NC[C@H]1CN(c2ccc([N+](=O)[O-])cc2)C(=O)O1 | 2 (≈ 7.16 µM) | 2 (≈ 7.16 µM) |
| CC(=O)NC[C@H]1CN(c2ccc([S+]([O-])C(F)(F)F)cc2)C(=O)O1 (stereo partly specified) | 2 (≈ 5.71 µM) | 2 (≈ 5.71 µM) |
| CC(=O)NCC1CN(c2ccc(F)cc2)C(=O)O1 (racemic) | > 64 | > 64 |
| CC(=O)NC[C@H]1CN(c2ccc(C(O)C(C)C)cc2)C(=O)O1 (stereo partly specified) | 8 (≈ 26.1 µM) | 4 (≈ 13.1 µM) |
| CC(=O)NC[C@H]1CN(c2ccc(S(C)(=O)=O)cc2)C(=O)O1 | 4 (≈ 12.8 µM) | 4 (≈ 12.8 µM) |
| C=Cc1ccc(N2C[C@H](CNC(C)=O)OC2=O)cc1 | 8 (≈ 30.7 µM) | 4 (≈ 15.4 µM) |
| CC(=O)NC[C@H]1CN(c2ccc(C(=O)CC#N)cc2)C(=O)O1 | 64 (≈ 212 µM) | 8 (≈ 26.6 µM) |

| SMILES | MIC (Enterococcus faecalis) [µg/mL] | MIC (Staphylococcus aureus) [µg/mL] |
| --- | --- | --- |
| CCOC(=O)c1ccc(N2CC(CNC(C)=O)OC2=O)cc1 (racemic) | 4 (≈ 13.1 µM) | 4 (≈ 13.1 µM) |
| CC(=O)NCC1CN(c2ccc(CO)cc2)C(=O)O1 (racemic) | 16 (≈ 60.5 µM) | 32 (≈ 121 µM) |
| CC(=O)NCC(=O)c1ccc(N2C[C@H](CNC(C)=O)OC2=O)cc1 | 16 (≈ 48 µM) | 8 (≈ 24 µM) |
| CCCCc1ccc(N2CC(CNC(C)=O)OC2=O)cc1 (racemic) | 4 (≈ 13.8 µM) | 4 (≈ 13.8 µM) |
| CCCC(=O)c1ccc(N2C[C@H](CNC(C)=O)OC2=O)cc1 | 0.25 (≈ 0.821 µM) | 0.25 (≈ 0.821 µM) |
| CC(=O)NC[C@H]1CN(c2ccc(C(C)(C)O)cc2)C(=O)O1 | 4 (≈ 13.7 µM) | 2 (≈ 6.84 µM) |
| CC(=O)NC[C@H]1CN(c2ccc(S(=O)(=O)CF)cc2)C(=O)O1 | 1 (≈ 3.03 µM) | 1 (≈ 3.03 µM) |
| CC(=O)NC[C@H]1CN(c2ccc(Br)cc2)C(=O)O1 | 8 (≈ 25.5 µM) | 16 (≈ 51.1 µM) |
| CCS(=O)(=O)c1ccc(N2C[C@H](CNC(C)=O)OC2=O)cc1 | 8 (≈ 24.5 µM) | 8 (≈ 24.5 µM) |
| CC(=O)NC[C@H]1CN(c2ccc(C(=O)COC(C)=O)cc2)C(=O)O1 | 2 (≈ 5.98 µM) | 0.5 (≈ 1.5 µM) |
| CCCc1ccc(N2C[C@H](CNC(C)=O)OC2=O)cc1 | 4 (≈ 14.5 µM) | 2 (≈ 7.24 µM) |
| CCCC(O)c1ccc(N2C[C@H](CNC(C)=O)OC2=O)cc1 (stereo partly specified) | 32 (≈ 104 µM) | 16 (≈ 52.2 µM) |
| CC[S+]([O-])c1ccc(N2CC(CNC(C)=O)OC2=O)cc1 (single isomer, unassigned) | 16 (≈ 51.6 µM) | 16 (≈ 51.6 µM) |
| CCN(CC)c1ccc(N2C[C@H](CNC(C)=O)OC2=O)cc1 | 16 (≈ 52.4 µM) | 8 (≈ 26.2 µM) |
| CC(=O)NC[C@H]1CN(c2ccc(C(=O)CBr)cc2)C(=O)O1 | 8 (≈ 22.5 µM) | 4 (≈ 11.3 µM) |
| CSc1ccc(N2C[C@H](CNC(C)=O)OC2=O)cc1 | 4 (≈ 14.3 µM) | 4 (≈ 14.3 µM) |
| CCCCOc1ccc(N2C[C@H](CNC(C)=O)OC2=O)cc1 | 16 (≈ 52.2 µM) | 8 (≈ 26.1 µM) |
| CC(=O)NC[C@H]1CN(c2ccc(N)cc2)C(=O)O1 | 128 (≈ 513 µM) | 128 (≈ 513 µM) |
| CCCS(=O)(=O)c1ccc(N2C[C@H](CNC(C)=O)OC2=O)cc1 | 32 (≈ 94 µM) | 32 (≈ 94 µM) |
| COC(=O)c1ccc(N2C[C@H](CNC(C)=O)OC2=O)cc1 | 2 (≈ 6.84 µM) | 2 (≈ 6.84 µM) |
| CC(=O)NC[C@H]1CN(c2ccc(SC(F)(F)F)cc2)C(=O)O1 | 4 (≈ 12 µM) | 4 (≈ 12 µM) |

| SMILES | MIC (Enterococcus faecalis) [µg/mL] | MIC (Staphylococcus aureus) [µg/mL] |
| --- | --- | --- |
| CC(=O)NC[C@H]1CN(c2ccc(C=O)cc2)C(=O)O1 | 8 (≈ 30.5 µM) | 8 (≈ 30.5 µM) |
| CCC/C(=N/O)c1ccc(N2C[C@H](CNC(C)=O)OC2=O)cc1 | 4 (≈ 12.5 µM) | 4 (≈ 12.5 µM) |
| CC(=O)NC[C@H]1CN(c2ccc(Sc3ccccc3)cc2)C(=O)O1 | 128 (≈ 374 µM) | > 128 |
| CC(=O)NC[C@H]1CN(c2ccc(/C=N\O)cc2)C(=O)O1 | 16 (≈ 57.7 µM) | 16 (≈ 57.7 µM) |
| CC(=O)NC[C@H]1CN(c2ccc(C(C)=O)cc2)C(=O)O1 [DUP-721] | 1 (≈ 3.62 µM) | 0.5 (≈ 1.81 µM) |
| CC(=O)NC[C@H]1CN(c2ccc(C(C)(C)C)cc2)C(=O)O1 | 2 (≈ 6.89 µM) | 1 (≈ 3.44 µM) |
| CC(=O)NCC1CN(c2ccc(Cl)cc2)C(=O)O1 (racemic) | 64 (≈ 238 µM) | 32 (≈ 119 µM) |
| CC(=O)NCC1CN(c2ccc(C(C)C)cc2)C(=O)O1 (racemic) | 4 (≈ 14.5 µM) | 4 (≈ 14.5 µM) |
| CC(=O)NC[C@@H]1CN(c2ccc(S(C)=O)cc2)C(=O)O1 (stereo partly specified) | 4 (≈ 13.5 µM) | 4 (≈ 13.5 µM) |
| C#Cc1ccc(N2C[C@H](CNC(C)=O)OC2=O)cc1 | 16 (≈ 61.9 µM) | 16 (≈ 61.9 µM) |
| CC(=O)NC[C@H]1CN(c2ccc(C(=O)C(C)C)cc2)C(=O)O1 | 1 (≈ 3.29 µM) | 1 (≈ 3.29 µM) |
| CC(=O)NC[C@H]1CN(c2ccc(C(=O)CF)cc2)C(=O)O1 | 2 (≈ 6.8 µM) | 2 (≈ 6.8 µM) |
| CC(=O)NCC1CN(c2ccc(Oc3ccccc3)cc2)C(=O)O1 (racemic) | 64 (≈ 196 µM) | 64 (≈ 196 µM) |
| CCC(O)c1ccc(N2C[C@H](CNC(C)=O)OC2=O)cc1 (stereo partly specified) | 64 (≈ 219 µM) | 32 (≈ 109 µM) |
| COc1ccc(N2CC(CNC(C)=O)OC2=O)cc1 (racemic) | 32 (≈ 121 µM) | 32 (≈ 121 µM) |
| CC(=O)NC[C@H]1CN(c2ccc(C(C)O)cc2)C(=O)O1 (stereo partly specified) | 4 (≈ 14.4 µM) | 4 (≈ 14.4 µM) |
| CC(=O)NC[C@H]1CN(c2ccc(S(=O)(=O)C(F)(F)F)cc2)C(=O)O1 | 2 (≈ 5.46 µM) | 2 (≈ 5.46 µM) |
| CC(=O)NC[C@H]1CN(c2ccc(I)cc2)C(=O)O1 | 8 (≈ 22.2 µM) | 8 (≈ 22.2 µM) |
| CC(=O)NC[C@H]1CN(c2ccc(N(C)C)cc2)C(=O)O1 | 16 (≈ 57.7 µM) | 16 (≈ 57.7 µM) |
| CCSc1ccc(N2C[C@H](CNC(C)=O)OC2=O)cc1 | 2 (≈ 6.79 µM) | 1 (≈ 3.4 µM) |
| CC(=O)NC[C@H]1CN(c2ccc(C)cc2)C(=O)O1 | 32 (≈ 129 µM) | 32 (≈ 129 µM) |

Reference: ChEMBL document CHEMBL1125122, “Antibacterials. Synthesis and structure-activity studies of 3-aryl-2-oxooxazolidines. 2. The "A" group” (1990)
